Laboratory results from patent US4988828A, “Phenoxypropyl derivatives” (Fujirebio Kabushiki Kaisha, priority 1987, dated 1991).

Experiments:
[1] = system: stomach; experiment: Gastric mucosal protecting activity (ulcer caused by 0.4N-HCl+50% ethanol); format: in vivo, rat (male Donryu); details: 30 minutes before necrotizing substance
Experimental: Male Donryu rats (150 to 250 g) which had been caused to fast for 24 hours were used. The test compound was administered in a dose of 10 mg/kg. p.o., and 30 minutes later, a necrotizing substance (0.4N-HCl+50% ethanol) was administered orally in a dose of 5 ml/kg. One hour after the administration of the necrotizing substance, the stomach was dissected out and fixed with formalin. The area of ulcer which occurred was measured, and by comparison with a control group, the percent inhibition of the test compound was determined.

[2] = molecular target: T1, histamine H2 receptor (Cavia porcellus, UniProt P47747); experiment: Histamine H2 antagonizing activity (isolated guinea pig right atrium, histamine dose-response); parameters: species or system guinea pig (Hartley-strain); details: 32° C., test compound 1×10^-6, 1×10^-7 M, 10 min before histamine, Van Rossum method, read-out: pA2 (converted)
T1 construct: The right atrium was isolated in the Krebs-Henselite solution; from tissue; host or cells: isolated right atrium of male Hartley-strain guinea pigs
T1 sequence (P47747 whole entry): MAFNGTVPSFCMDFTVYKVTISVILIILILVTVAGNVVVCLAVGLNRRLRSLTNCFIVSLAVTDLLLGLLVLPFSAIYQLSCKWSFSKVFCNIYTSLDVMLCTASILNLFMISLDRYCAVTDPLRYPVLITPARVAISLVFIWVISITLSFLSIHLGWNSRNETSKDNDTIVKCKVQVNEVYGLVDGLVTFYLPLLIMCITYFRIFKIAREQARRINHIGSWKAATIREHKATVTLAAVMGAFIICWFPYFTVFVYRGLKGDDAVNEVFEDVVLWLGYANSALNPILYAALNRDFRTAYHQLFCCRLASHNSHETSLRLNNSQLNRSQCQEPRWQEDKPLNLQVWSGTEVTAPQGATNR
Experimental: Hartley-strain guinea pigs (male, weight 300 to 350 g) were killed by a blow on the head, and the heart was extracted. The right atrium was isolated in the Krebs-Henselite solution through which a mixed gas (O2 95%, CO2 5%) was circulated. The right atrium was suspended in an organ bath (30 ml) filled with the Krebs-Henselite solution kept at 32° C. The mixed gas was circulated through the organ bath, and a diastolic tension of 1 g was maintained. Contraction of the right atrium was recorded by a force-displacement transducer, and the heart rate was counted by a heart rate meter interlocked with the transducer.
Histamine (used in the form of dihydrochloride) was added cumulatively to the organ bath in a concentration of 1×10^-8 M to 3×10^-5 M. Thus, the dose-response curve of histamine was obtained. The inside of the organ bath was washed several times, and the test compound (1×10^-6, 1×10^-7 M) was added to the organ bath. Ten minutes later, the dose-response curve of histamine in the presence of the test compound was obtained.
The pA2 value of the test compound was determined from the first histamine dose-response curve and the histamine dose-response curve in the presence of the test compound by the method of J. M. Van Rossum (Arch. Int. Pharmacodyn. Ther., 143-299, 1963).

| Kb [2] | SMILES | Percent inhibition (area of ulcer, vs control group) ([1]; 10 mg/kg p.o.) | Percent inhibition (area of ulcer, vs control group) ([1]; 30 mg/kg p.o.) |
| --- | --- | --- | --- |
| – | O=C(CSCc1ccco1)NCCCOc1cccc(CN2CCCCC2)c1 [Example 12, N-(3-[3-(piperidinomethyl)phenoxy]propyl)-2-(furfurylthio)acetamide] | 63% | – |
| – | CN/C(=N/CCSCc1nc[nH]c1C)NC#N [cimetidine, reference compound] | No inhibition was observed | 11% |
| 79.4 nM | O=C(C[S+]([O-])Cc1ccco1)NCCCOc1cccc(CN2CCCCC2)c1 (centres unmarked) [Example 13, N-{3-[3-(piperidinomethyl)phenoxy]propyl}-2-(furfurylsulfinyl)acetamide] | 72% | – |
